In ChEMBL document CHEMBL3045550, “Design, synthesis and biological activities of new strobilurin derivatives containing substituted pyrazoles” (2010) one finds Activity data, which are given here for twelve compounds.

Common to all, as to format: functional
Test [1] concerns Pseudoperonospora cubensis. As to the kind of experiment: Antifungal activity against Pseudoperonospora cubensis infected cucumber leaves assessed as disease control at 3.12 mg/l after 5 days relative to control.
The next test deals with Botrytis cinerea. As to the kind of experiment: Antifungal activity against Botryotinia fuckeliana infected cucumber leaves assessed as disease control at 400 mg/l after 4 days relative to control.
In test [2] the test system is Tetranychus cinnabarinus. As to the kind of experiment: Acaricidal activity against Tetranychus cinnabarinus (carmine spider mite) in kidney bean plants assessed as mortality at 600 mg/l after 48 hr relative to control.
In test [3] the test system is Blumeria graminis f. sp. tritici. The test can be described thus: Antifungal activity against Blumeria graminis f. sp. tritici infected seven-day-old wheat seedlings assessed as disease control at 400 mg/l after 7 days relative to control.
The test system is the same in test [4]. As to the kind of experiment: Antifungal activity against Blumeria graminis f. sp. tritici infected seven-day-old wheat seedlings assessed as disease control at 1.56 mg/l after 7 days relative to control.
Test [5] deals with Pseudoperonospora cubensis. The test can be described thus: Antifungal activity against Pseudoperonospora cubensis infected cucumber leaves assessed as disease control at 400 mg/l after 5 days relative to control.
Test [6] has as its system Blumeria graminis f. sp. tritici. As to the kind of experiment: Antifungal activity against Blumeria graminis f. sp. tritici infected seven-day-old wheat seedlings assessed as disease control at 12.5 mg/l after 7 days relative to control.
Another test concerns Pyricularia oryzae. As to the kind of experiment: Antifungal activity against Magnaporthe oryzae infected 12 day old rice plant assessed as disease control at 400 mg/l after 6 days relative to control.
In test [7] the test system is Pseudoperonospora cubensis. The test can be described thus: Antifungal activity against Pseudoperonospora cubensis infected cucumber leaves assessed as disease control at 25 mg/l after 5 days relative to control.
For test [8], the system named is Pseudoperonospora cubensis. The test can be described thus: Antifungal activity against Pseudoperonospora cubensis infected cucumber leaves assessed as disease control at 6.25 mg/l after 5 days relative to control.
For test [9], the system named is Tetranychus cinnabarinus. As to the kind of experiment: Acaricidal activity against Tetranychus cinnabarinus (carmine spider mite) in kidney bean plants assessed as mortality at 38 mg/l after 48 hr relative to control.
Test [10] deals with Tetranychus cinnabarinus. As to the kind of experiment: Acaricidal activity against Tetranychus cinnabarinus (carmine spider mite) in kidney bean plants assessed as mortality at 150 mg/l after 48 hr relative to control.

Consider `CO/C=C(/C(=O)OC)c1ccccc1COc1cc(-c2ccccc2Cl)nn1C`, for which the Activity in test [1] was 0%; in the test on Botrytis cinerea, 0%; in the test with Tetranychus cinnabarinus [2], 100%; in test [3], 100%; in [4], 40%; in test [5], 100%. In addition, the Activity is 100% in test [6]; 0% in the test with Pyricularia oryzae; 100% in test [7]; 0% in test [8]; 0% in the test with Tetranychus cinnabarinus [9]; 0% in the test on Tetranychus cinnabarinus [10].
Consider `CO/C=C(/C(=O)OC)c1ccccc1COc1c(C)c(-c2ccc(C)cc2)nn1C` [METHYL 2-(2-((1,4-DIMETHYL-3-P-TOLYL-1H-PYRAZOL-5-YLOXY)METHYL)PHENYL)-3-METHOXYACRYLATE], for which the Activity is listed as 40% in test [1]; 0% with Botrytis cinerea; 100% in the test with Tetranychus cinnabarinus [2]; 100% in [3]; 45% in test [4]; 100% in [5]. For the same compound, the Activity in test [6] was 100%; in the test on Pyricularia oryzae, 0%; in test [7], 100%; in test [8], 75%; in the test with Tetranychus cinnabarinus [9] it was 0%; with Tetranychus cinnabarinus [10] it was 0%.
With `CO/C=C(/C(=O)OC)c1ccccc1COc1cc(-c2ccc(C)cc2C)nn1C` [METHYL 2-(2-((3-(2,4-DIMETHYLPHENYL)-1-METHYL-1H-PYRAZOL-5-YLOXY)METHYL)PHENYL)-3-METHOXYACRYLATE], the Activity in [1] stood at 20%; in the test with Botrytis cinerea, 50%; with Tetranychus cinnabarinus [2], 100%; in test [3], 100%; in [4], 80%; in [5], 100%. The Activity in test [6] is on record as 100%; with Pyricularia oryzae, 100%; in test [7], 100%; in [8], 70%; with Tetranychus cinnabarinus [9], 0%; with Tetranychus cinnabarinus [10] it was 0%.
As to `CO/C=C(/C(=O)OC)c1ccccc1COc1c(C)c(-c2cc(C)ccc2C)nn1C` [METHYL 2-(2-((3-(2,5-DIMETHYLPHENYL)-1,4-DIMETHYL-1H-PYRAZOL-5-YLOXY)METHYL)PHENYL)-3-METHOXYACRYLATE], the Activity in [1] turned out to be 0%; in the test with Botrytis cinerea, 50%; in the test on Tetranychus cinnabarinus [2], 100%; in [3], 100%; in test [4] it was 0%; in test [5], 100%. Further, the Activity in test [6] is listed as 50%; in the test on Pyricularia oryzae, 100%; in test [7] it was 80%; in [8] it was 0%; in the test on Tetranychus cinnabarinus [9], 0%; in the test on Tetranychus cinnabarinus [10], 20%.
In the case of `CO/C=C(/C(=O)OC)c1ccccc1COc1c(C)c(-c2ccc(C)c(C)c2)nn1C` [METHYL 2-(2-((3-(3,4-DIMETHYLPHENYL)-1,4-DIMETHYL-1H-PYRAZOL-5-YLOXY)METHYL)PHENYL)-3-METHOXYACRYLATE], the Activity is 30% in test [1]; 50% with Botrytis cinerea; 100% in the test on Tetranychus cinnabarinus [2]; 100% in [3]; 70% in test [4]; 100% in test [5]. For the same compound, the Activity stood at 100% in test [6]; 100% with Pyricularia oryzae; 100% in test [7]; 85% in test [8]; 0% with Tetranychus cinnabarinus [9]; 80% with Tetranychus cinnabarinus [10].
In the case of `CO/C=C(/C(=O)OC)c1ccccc1COc1cc(-c2ccc(C)c(C)c2)nn1C` [METHYL 2-(2-((3-(3,4-DIMETHYLPHENYL)-1-METHYL-1H-PYRAZOL-5-YLOXY)METHYL)PHENYL)-3-METHOXYACRYLATE], the Activity was determined as 35% in [1]; 50% in the test with Botrytis cinerea; 100% in the test on Tetranychus cinnabarinus [2]; 100% in [3]; 80% in [4]; 100% in test [5]. Further, the Activity in test [6] worked out at 100%; in the test with Pyricularia oryzae it was 100%; in test [7] it was 100%; in test [8], 40%; with Tetranychus cinnabarinus [9], 0%; with Tetranychus cinnabarinus [10], 0%.
As for `CO/C=C(/C(=O)OC)c1ccccc1COc1cc(-c2ccc(Br)cc2)nn1C` [METHYL 2-(2-((3-(4-BROMOPHENYL)-1-METHYL-1H-PYRAZOL-5-YLOXY)METHYL)PHENYL)-3-METHOXYACRYLATE], the Activity in [1] came out at 60%; in the test on Botrytis cinerea it was 0%; in the test with Tetranychus cinnabarinus [2], 100%; in test [3], 100%; in [4], 10%; in [5], 100%. Also, the Activity was found to be 100% in test [6]; 70% in the test with Pyricularia oryzae; 100% in test [7]; 85% in test [8]; 57% in the test with Tetranychus cinnabarinus [9]; 71% in the test on Tetranychus cinnabarinus [10].
`CCOc1ccc(-c2nn(C)c(OCc3ccccc3/C(=C\OC)C(=O)OC)c2C)cc1` [METHYL 2-(2-((3-(4-ETHOXYPHENYL)-1,4-DIMETHYL-1H-PYRAZOL-5-YLOXY)METHYL)PHENYL)-3-METHOXYACRYLATE]: the Activity in test [1] is on record as 0%; with Botrytis cinerea, 100%; in the test on Tetranychus cinnabarinus [2], 100%; in test [3], 100%; in test [4] it was 65%; in [5], 100%. The Activity turned out to be 100% in test [6]; 100% in the test on Pyricularia oryzae; 50% in test [7]; 0% in [8]; 20% in the test with Tetranychus cinnabarinus [9]; 35% with Tetranychus cinnabarinus [10].
As to `CCc1ccc(-c2nn(C)c(OCc3ccccc3/C(=C\OC)C(=O)OC)c2C)cc1` [METHYL 2-(2-((3-(4-ETHYLPHENYL)-1,4-DIMETHYL-1H-PYRAZOL-5-YLOXY)METHYL)PHENYL)-3-METHOXYACRYLATE], the Activity in [1] is 20%; in the test with Botrytis cinerea, 0%; with Tetranychus cinnabarinus [2] it was 100%; in test [3], 100%; in test [4], 0%; in test [5] it was 100%. In addition, the Activity in test [6] came to 100%; with Pyricularia oryzae it was 0%; in [7] it was 100%; in [8], 60%; in the test with Tetranychus cinnabarinus [9], 30%; with Tetranychus cinnabarinus [10] it was 100%.
`CO/C=C(/C(=O)OC)c1ccccc1COc1c(C)c(-c2ccc(C(C)(C)C)cc2)nn1C` [METHYL 2-(2-((3-(4-TERT-BUTYLPHENYL)-1,4-DIMETHYL-1H-PYRAZOL-5-YLOXY)METHYL)PHENYL)-3-METHOXYACRYLATE]: the Activity stood at 0% in [1]; 50% in the test on Botrytis cinerea; 100% with Tetranychus cinnabarinus [2]; 90% in [3]; 0% in [4]; 95% in test [5]. The Activity amounted to 10% in test [6]; 50% in the test on Pyricularia oryzae; 20% in test [7]; 0% in test [8]; 0% in the test on Tetranychus cinnabarinus [9]; 0% in the test with Tetranychus cinnabarinus [10].
On to `CO/C=C(/C(=O)OC)c1ccccc1COc1c(C)c(-c2ccc(OC)cc2)nn1C` [METHYL 3-METHOXY-2-(2-((3-(4-METHOXYPHENYL)-1,4-DIMETHYL-1H-PYRAZOL-5-YLOXY)METHYL)PHENYL)ACRYLATE], for which the Activity in test [1] was 55%; with Botrytis cinerea, 100%; in the test on Tetranychus cinnabarinus [2] it was 90%; in test [3], 100%; in test [4], 95%; in test [5] it was 100%. Also, the Activity in test [6] worked out at 100%; in the test with Pyricularia oryzae, 100%; in [7], 100%; in [8] it was 96%; in the test on Tetranychus cinnabarinus [9], 0%; in the test on Tetranychus cinnabarinus [10], 0%.
In the case of `CO/C=C(/C(=O)OC)c1ccccc1COc1cc(-c2ccc(Cl)cc2)nn1C` [PYRAOXYSTROBIN], the Activity in test [1] was 100%; with Botrytis cinerea it was 100%; in the test with Tetranychus cinnabarinus [2], 100%; in test [3], 100%; in [4], 0%; in test [5], 100%. The Activity in [6] is 75%; in the test on Pyricularia oryzae it was 100%; in test [7], 100%; in [8], 100%; in the test with Tetranychus cinnabarinus [9], 0%; in the test with Tetranychus cinnabarinus [10], 0%.
